Laboratory results published in patent US9029359B2, “Heteroaryl Btk inhibitors” (Biogen Idec MA, Inc., priority 2009, dated 2015).

Biological target: T1, BTK (Homo sapiens, UniProt Q06187)
T1 construct: purchased Upstate 14-552
Assay: In vitro BTK kinase assay: BTK-POLYGAT-LS ASSAY
Type: biochemical
Conditions: ATP 10 uM
Experimental: In vitro BTK kinase assay: BTK-POLYGAT-LS ASSAY. The purpose of the BTK in vitro assay is to determine compound potency against BTK through the measurement of IC50. […] A 24 μL aliquot of a ATP/peptide master mix (final concentration; ATP 10 μM, polyGAT 100 nM) in kinase buffer (10 mM Tris-HCl pH 7.5, 10 mM MgCl2, 200 μM Na3VO4, 5 mM DTT, 0.01% Triton X-100, and 0.2 mg/ml Casein) is added to each well. […] The assay is incubated for 30 minutes before being stopped with 28 μL of a 50 mM EDTA solution. […] The plate is covered and incubated for 45 minutes at room temperature. Time resolved fluorescence (TRF) on Molecular Devices M5 (332 nm excitation; 488 nm emission; 518 nm fluorescein emission) is measured.

T1 sequence (Q06187 whole entry): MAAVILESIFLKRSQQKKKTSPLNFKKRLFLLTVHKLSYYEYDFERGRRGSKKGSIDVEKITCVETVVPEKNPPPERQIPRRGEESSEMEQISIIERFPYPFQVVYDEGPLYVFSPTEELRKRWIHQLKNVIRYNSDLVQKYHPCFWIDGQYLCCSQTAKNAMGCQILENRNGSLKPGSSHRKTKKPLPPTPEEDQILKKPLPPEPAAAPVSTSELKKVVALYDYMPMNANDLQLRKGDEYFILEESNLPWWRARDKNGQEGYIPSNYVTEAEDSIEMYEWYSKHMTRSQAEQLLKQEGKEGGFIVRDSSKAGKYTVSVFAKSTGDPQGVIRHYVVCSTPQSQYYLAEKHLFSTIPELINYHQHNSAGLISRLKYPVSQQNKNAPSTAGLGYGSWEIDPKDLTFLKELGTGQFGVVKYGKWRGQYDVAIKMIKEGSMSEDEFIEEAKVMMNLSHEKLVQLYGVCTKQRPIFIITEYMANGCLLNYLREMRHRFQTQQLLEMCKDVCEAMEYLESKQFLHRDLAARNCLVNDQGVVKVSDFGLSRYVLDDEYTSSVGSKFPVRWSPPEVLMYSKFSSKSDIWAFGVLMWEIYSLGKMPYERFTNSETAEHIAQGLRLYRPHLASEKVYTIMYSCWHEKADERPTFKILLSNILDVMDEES

| IC50 [µM] | SMILES |
| --- | --- |
| 0.1 to 0.999 | Cc1c(Cl)cccc1NCC(=O)NC1CCCN(c2ncnc3[nH]ccc23)C1 (stereo not shown) [Example 52, (N-(1-(7H-pyrrolo[2,3-d]pyrimidin-4-yl)piperidin-3-yl)-2-(3-chloro-2-methylphenylamino)acetamide)] |
| < 0.1 | C#Cc1cccc(NCC(=O)NC2CCCN(c3ncnc4[nH]ccc34)C2)c1 (stereo not shown) [Example 55, (N-(1-(7H-pyrrolo[2,3-d]pyrimidin-4-yl)piperidin-3-yl)-2-(3-ethynylphenylamino)acetamide)] |
| > 10 | Cc1cc(NCC(=O)NC2CCCN(c3ncnc4[nH]ccc34)C2)n(C(C)(C)C)n1 (stereo not shown) [Example 58, (N-(1-(7H-pyrrolo[2,3-d]pyrimidin-4-yl)piperidin-3-yl)-2-(1-tert-butyl-3-methyl-1H-pyrazol-5-ylamino)acetamide)] |
| 1 to 10 | Cn1ccc(-c2cccc(NCC(=O)NC3CCCN(c4ncnc5[nH]ccc45)C3)c2)n1 (stereo not shown) [Example 60] |
| 0.1 to 0.999 | O=C(CNc1ccc(F)c(F)c1)NC1CCCN(c2ncnc3[nH]ccc23)C1 (stereo not shown) [Example 62, (N-(1-(7H-pyrrolo[2,3-d]pyrimidin-4-yl)piperidin-3-yl)-2-(3,4-difluorophenylamino)acetamide)] |
| < 0.1 | O=C(CNc1cc(F)cc(C(F)(F)F)c1)NC1CCCN(c2ncnc3[nH]ccc23)C1 (stereo not shown) [Example 63, (N-(1-(7H-pyrrolo[2,3-d]pyrimidin-4-yl)piperidin-3-yl)-2-(3-fluoro-5-(trifluoromethyl)phenylamino)acetamide)] |
| 0.1 to 0.999 | Cc1ccc(NCC(=O)NC2CCCN(c3ncnc4[nH]ccc34)C2)cc1C(F)(F)F (stereo not shown) [Example 65, (N-(1-(7H-pyrrolo[2,3-d]pyrimidin-4-yl)piperidin-3-yl)-2-(4-methyl-3-(trifluoromethyl)phenylamino)acetamide)] |
| 0.1 to 0.999 | O=C(CNc1cccc(C(F)(F)F)c1F)NC1CCCN(c2ncnc3[nH]ccc23)C1 (stereo not shown) [Example 70, (N-(1-(7H-pyrrolo[2,3-d]pyrimidin-4-yl)piperidin-3-yl)-2-(2-fluoro-3-(trifluoromethyl)phenylamino)acetamide)] |
| 0.1 to 0.999 | O=C(CNc1cccc(-n2cccn2)c1)NC1CCCN(c2ncnc3[nH]ccc23)C1 (stereo not shown) [Example 77, (2-(3-(1H-pyrazol-1-yl)phenylamino)-N-(1-(7H-pyrrolo[2,3-d]pyrimidin-4-yl)piperidin-3-yl)acetamide)] |
| 0.1 to 0.999 | Cc1cccc(NCC(=O)NC2CCCN(c3ncnc4[nH]ccc34)C2)c1C (stereo not shown) [Example 84, (N-(1-(7H-pyrrolo[2,3-d]pyrimidin-4-yl)piperidin-3-yl)-2-(2,3-dimethylphenylamino)acetamide)] |
| 0.1 to 0.999 | O=C(CNc1ccccc1)N(CCc1ccccc1)C1CCCN(c2ncnc3[nH]ccc23)C1 (stereo not shown) [Example 87, (N-(1-(7H-pyrrolo[2,3-d]pyrimidin-4-yl)piperidin-3-yl)-N-phenethyl-2-(phenylamino)acetamide)] |

Second part, the compound before the results:

| SMILES | IC50 [µM] |
| --- | --- |
| O=C(CNc1cccc2ccccc12)NC1CCCN(c2ncnc3[nH]ccc23)C1 (stereo not shown) [Example 46, (N-(1-(7H-pyrrolo[2,3-d]pyrimidin-4-yl)piperidin-3-yl)-2-(naphthalen-1-ylamino)acetamide)] | < 0.1 |
| CC(C)Oc1cccc(NCC(=O)NC2CCCN(c3ncnc4[nH]ccc34)C2)c1 (stereo not shown) [Example 50, (N-(1-(7H-pyrrolo[2,3-d]pyrimidin-4-yl)piperidin-3-yl)-2-(3-isopropoxyphenylamino)acetamide)] | 1 to 10 |
| COc1c(Cl)cccc1NCC(=O)NC1CCCN(c2ncnc3[nH]ccc23)C1 (stereo not shown) [Example 53, (N-(1-(7H-pyrrolo[2,3-d]pyrimidin-4-yl)piperidin-3-yl)-2-(3-chloro-2-methoxyphenylamino)acetamide)] | 0.1 to 0.999 |
| O=C(CNc1cccc2c1CNC2=O)NC1CCCN(c2ncnc3[nH]ccc23)C1 (stereo not shown) [Example 54, (N-(1-(7H-pyrrolo[2,3-d]pyrimidin-4-yl)piperidin-3-yl)-2-(1-oxoisoindolin-4-ylamino)acetamide)] | > 10 |
| O=C(CNc1cccc(N2CCCC2)c1)NC1CCCN(c2ncnc3[nH]ccc23)C1 (stereo not shown) [Example 56, (N-(1-(7H-pyrrolo[2,3-d]pyrimidin-4-yl)piperidin-3-yl)-2-(3-(pyrrolidin-1-yl)phenylamino)acetamide)] | 0.1 to 0.999 |
| Cn1nc(C(C)(C)C)cc1NCC(=O)NC1CCCN(c2ncnc3[nH]ccc23)C1 (stereo not shown) [Example 57, (N-(1-(7H-pyrrolo[2,3-d]pyrimidin-4-yl)piperidin-3-yl)-2-(3-ten-butyl-1-methyl-1H-pyrazol-5-ylamino)acetamide)] | 1 to 10 |
| O=C(CNc1cccnc1)NC1CCCN(c2ncnc3[nH]ccc23)C1 (stereo not shown) [Example 59, (N-(1-(7H-pyrrolo[2,3-d]pyrimidin-4-yl)piperidin-3-yl)-2-(pyridin-3-ylamino)acetamide)] | > 10 |
| CN(C)c1cccc(NCC(=O)NC2CCCN(c3ncnc4[nH]ccc34)C2)c1 (stereo not shown) [Example 61, (N-(1-(7H-pyrrolo[2,3-d]pyrimidin-4-yl)piperidin-3-yl)-2-(3-(dimethylamino)phenylamino)acetamide)] | 1 to 10 |
| Cc1c(NCC(=O)NC2CCCN(c3ncnc4[nH]ccc34)C2)cccc1C(F)(F)F (stereo not shown) [Example 64, (N-(1-(7H-pyrrolo[2,3-d]pyrimidin-4-yl)piperidin-3-yl)-2-(2-methyl-3-(trifluoromethyl)phenylamino)acetamide)] | 0.1 to 0.999 |
| N#Cc1ccccc1NCC(=O)NC1CCCN(c2ncnc3[nH]ccc23)C1 (stereo not shown) [Example 66, (N-(1-(7H-pyrrolo[2,3-d]pyrimidin-4-yl)piperidin-3-yl)-2-(2-cyanophenylamino)acetamide)] | 1 to 10 |
| O=C(CNc1ccc(F)cc1F)NC1CCCN(c2ncnc3[nH]ccc23)C1 (stereo not shown) [Example 67, (N-(1-(7H-pyrrolo[2,3-d]pyrimidin-4-yl)piperidin-3-yl)-2-(2,4-difluorophenylamino)acetamide)] | 0.1 to 0.999 |
| O=C(CNc1cc(F)cc(F)c1)NC1CCCN(c2ncnc3[nH]ccc23)C1 (stereo not shown) [Example 68, (N-(1-(7H-pyrrolo[2,3-d]pyrimidin-4-yl)piperidin-3-yl)-2-(3,5-difluorophenylamino)acetamide)] | < 0.1 |
| O=C(CNc1cc(C(F)(F)F)ccc1F)NC1CCCN(c2ncnc3[nH]ccc23)C1 (stereo not shown) [Example 69, (N-(1-(7H-pyrrolo[2,3-d]pyrimidin-4-yl)piperidin-3-yl)-2-(2-fluoro-5-(trifluoromethyl)phenylamino)acetamide)] | 1 to 10 |
| O=C(CNc1cccc(F)c1F)NC1CCCN(c2ncnc3[nH]ccc23)C1 (stereo not shown) [Example 71, (N-(1-(7H-pyrrolo[2,3-d]pyrimidin-4-yl)piperidin-3-yl)-2-(2,3-difluorophenylamino)acetamide)] | 0.1 to 0.999 |
| O=C(CNC1CCCC1)NC1CCCN(c2ncnc3[nH]ccc23)C1 (stereo not shown) [Example 72] | 1 to 10 |
| N#Cc1ccc(NCC(=O)NC2CCCN(c3ncnc4[nH]ccc34)C2)cc1C(F)(F)F (stereo not shown) [Example 73, (N-(1-(7H-pyrrolo[2,3-d]pyrimidin-4-yl)piperidin-3-yl)-2-(4-cyano-3-(trifluoromethyl)phenylamino)acetamide)] | > 10 |
| O=C(CNc1ccc(F)c(C(F)(F)F)c1)NC1CCCN(c2ncnc3[nH]ccc23)C1 (stereo not shown) [Example 74, (N-(1-(7H-pyrrolo[2,3-d]pyrimidin-4-yl)piperidin-3-yl)-2-(4-fluoro-3-(trifluoromethyl)phenylamino)acetamide)] | 1 to 10 |
| O=C(CNc1cccc2cn[nH]c12)NC1CCCN(c2ncnc3[nH]ccc23)C1 (stereo not shown) [Example 75] | 1 to 10 |
| O=C(CNc1cccc2[nH]ncc12)NC1CCCN(c2ncnc3[nH]ccc23)C1 (stereo not shown) [Example 76, (2-(1H-indazol-4-ylamino)-N-(1-(7H-pyrrolo[2,3-d]pyrimidin-4-yl)piperidin-3-yl)acetamide)] | 0.1 to 0.999 |
| Cn1ncc2c(NCC(=O)NC3CCCN(c4ncnc5[nH]ccc45)C3)cccc21 (stereo not shown) [Example 78, (N-(1-(7H-pyrrolo[2,3-d]pyrimidin-4-yl)piperidin-3-yl)-2-(1-methyl-1H-indazol-4-ylamino)acetamide)] | 1 to 10 |
| O=C(CNc1ccn(-c2ccccc2)n1)NC1CCCN(c2ncnc3[nH]ccc23)C1 (stereo not shown) [Example 79, (N-(1-(7H-pyrrolo[2,3-d]pyrimidin-4-yl)piperidin-3-yl)-2-(1-phenyl-1H-pyrazol-3-ylamino)acetamide)] | > 10 |
| Cn1ccc(NCC(=O)NC2CCCN(c3ncnc4[nH]ccc34)C2)n1 (stereo not shown) [Example 80, (N-(1-(7H-pyrrolo[2,3-d]pyrimidin-4-yl)piperidin-3-yl)-2-(1-methyl-1H-pyrazol-3-ylamino)acetamide)] | 1 to 10 |
| O=C(CNc1cccc2cccnc12)NC1CCCN(c2ncnc3[nH]ccc23)C1 (stereo not shown) [Example 81, (N-(1-(7H-pyrrolo[2,3-d]pyrimidin-4-yl)piperidin-3-yl)-2-(quinolin-8-ylamino)acetamide)] | 1 to 10 |
| O=C(CNc1cccc(SC(F)(F)F)c1)NC1CCCN(c2ncnc3[nH]ccc23)C1 (stereo not shown) [Example 82, (N-(1-(7H-pyrrolo[2,3-d]pyrimidin-4-yl)piperidin-3-yl)-2-(3-(trifluoromethylthio)phenylamino)acetamide)] | 0.1 to 0.999 |
| O=C(CNc1cccc(N2CCOCC2)c1)NC1CCCN(c2ncnc3[nH]ccc23)C1 (stereo not shown) [Example 83, (N-(1-(7H-pyrrolo[2,3-d]pyrimidin-4-yl)piperidin-3-yl)-2-(3-morpholinophenylamino)acetamide)] | 1 to 10 |
| O=C(CNc1ccccc1)N(Cc1ccccc1)C1CCCN(c2ncnc3[nH]ccc23)C1 (stereo not shown) [Example 86, (N-(1-(7H-pyrrolo[2,3-d]pyrimidin-4-yl)piperidin-3-yl)-N-benzyl-2-(phenylamino)acetamide)] | 1 to 10 |
